Results published in paper PMC9057948, “Identification, isolation, structural characterization, in silico toxicity prediction and in vitro cytotoxicity assay of simeprevir acidic and oxidative degradation products” (RSC Advances, 2020).
Like-named read-outs stand apart in the source and are kept apart here.

Legend:
[1] = SRB cytotoxicity (cell viability) assay; type: cell-based, Human; conditions: human, Human Skin Fibroblast (HSF) cells; for viability at 72 h, 0.01 µM / viability at 72 h, 0.1 µM / viability at 72 h, 1 µM / viability at 72 h, 10 µM: n = 3
Description: (§1) Human Skin Fibroblast cell line was obtained from Nawah Scientific Inc., (Mokatam, Cairo, Egypt). Cells were maintained in DMEM media supplemented with […] of streptomycin, 100 units per mL of penicillin and 10% of heat-inactivated fetal bovine serum in humidified, 5% (v/v) CO2 atmosphere at 37 °C.
(§2) Absorbance was measured in the cytotoxicity assay at 540 nm on a BMG LABTECH®-FLUOstar Omega microplate reader (Ortenberg, Germany).
(§3) Cell viability was assessed by SRB assay.[25] Aliquots of 100 μL cell suspension (5 × 10^3 cells) were in 96-well plates and incubated in complete media for 24 h. Cells were treated with another aliquot of 100 μL media containing (DP 1, DP 2, DP 3, DP 4, DP 5 and Doxorubicin as positive control) at various concentrations ranging from (0.01, 0.1, 1, 10, 100 μm). After 72 h of drug exposure, cells were fixed by replacing media with 150 μL of 10% TCA and incubated at 4 °C for 1 h. The TCA solution was removed, and the cells were washed 5 times with distilled water. Aliquots of 70 μL SRB solution (0.4% w/v) were added and incubated in a dark place at room temperature for 10 min. Plates were washed 3 times with 1% acetic acid and allowed to air-dry overnight. Then, 150 μL of Tris (10 mM) was added to dissolve protein-bound SRB stain; the absorbance was measured at 540 nm using microplate reader. The percentage of cell viability was calculated by using the following formula:[26] [drawing 1]
(§4) Cytotoxicity assay was carried out to confirm the in silico toxicity prediction study results. As an in vitro method to monitor the potential toxicity and/or safety of simeprevir and its degradation products (DP 1, DP 2, DP 3, DP 4 and DP 5), against Human Skin Fibroblast (HSF) cell line. SRB assay was used to assess the effect of these compounds on the viability and proliferation of HSF cell line (Table S1 ^†), in addition to taking images using the optical microscope to register any change on the tested cells.
(§5) The percentage of cell viability was measured at five different concentrations (0.01, 0.1, 1, 10 and 100 μM) in comparison with doxorubicin as a standard drug (positive control) which is monitored at the same concentration range after incubation for 72 h period.

[2] = system: Human Skin Fibroblast (HSF) cell line; assay: SRB cytotoxicity (cell viability) assay; type: cell-based; conditions: Homo sapiens; HSF cells, SRB assay, 72 h exposure, 0.01–100 μM
Description: as §1, §2, §3, §4, §5

[3] = system: Human Skin Fibroblast (HSF) cell line; assay: Optical microscope stained images of the cytotoxicity assay; type: cell-based; conditions: HSF cells, magnification 200×
Description: as §4
The optical microscope stained images were recorded as shown in Fig. 7 comparing the cytotoxic effect of the five degradation products with that of doxorubicin at a concentration of 100 μM. […] This proves that simeprevir acidic and oxidative degradation products are non-toxic up to 100 μM (IC50 > 100 μM).

[4] = Forced degradation study (stress degradation, HPLC); type: physicochemical
Description: The forced degradation studies were carried out on 1 mg mL^−1 in methanol. Acidic hydrolysis was performed by treating the drug with 0.5 M hydrochloric acid for 5 hours, while the basic hydrolysis conditions were 1 M sodium hydroxide for 5 hours. In both cases, the reaction was immersed in a boiling water bath maintained at 100 °C.
Oxidative degradation was performed by treating the drug with 3% hydrogen peroxide for 5 hours and the reaction was immersed in a boiling water bath maintained at 100 °C. In the thermal degradation, simeprevir was subjected to high temperature by placing the drug in a thermostatic oven at 100 °C.
The samples from the acidic and basic hydrolysis stress tests were neutralized and diluted with methanol to achieve final assay concentrations of 100 μg mL^−1. The final sample solutions were filtered through a 0.45 μm membrane before HPLC analysis. All sample solutions were stored at 4 °C in a refrigerator to avoid degradation.
Although, previous reports by Attia et al.[18] and Mohammed et al.[27] uses different basic hydrolysis conditions; 0.1 N NaOH for 3 hours at room temperature and 1 M NaOH for 2 hours at 60 °C; respectively. […] In our report, no peak was observed after HPLC injection of the alkaline degradation samples which is confirmed using TLC and Flash Chromatography; in which only drug peak was detected.

[5] = cited from earlier work
[6] = no reference given; cited from earlier work
[7] = 72 h, n = 3, read-out: Viability % (Mean)

SMILES | viability at 72 h, 0.01 µM ([1]; 72 h) [%] | viability at 72 h, 0.1 µM ([1]; 72 h) [%] | viability at 72 h, 1 µM ([1]; 72 h) [%] | viability at 72 h, 10 µM ([1]; 72 h) [%] | viability at 72 h, 100 µM [1, 7] [%] | IC50 [2] [µM] | viability at 72 h, 100 µM ([1]; single replicate, read-out: cell viability in one of the replicates) [%] | morphological changes ([3]; 100 μM) | morphological changes ([3]; 0.1 μM) | % Degradation, acidic degradation ([4]; 0.5 M HCl at 100 °C, 5 hours) [%] | % Degradation, alkaline degradation ([4]; 1 M NaOH at 100 °C, 5 hours) | % Degradation, oxidative degradation ([4]; 3% w/v H2O2 at 100 °C, 5 hours) [%] | % Degradation, thermal degradation ([4]; Oven at 100 °C, 10 hours) | degradation percentage, basic hydrolysis ([5]; 0.1 N NaOH for 3 hours at room temperature, ref 18 (Attia et al.)) [%] | degradation percentage, basic hydrolysis ([5]; 1 M NaOH for 2 hours at 60 °C, ref 27 (Mohammed et al.)) [%] | pKa [6]
COc1ccc2c(OC3C[C@H]4C(=O)OC(=O)[C@@H]4C3)cc(-c3nc(C(C)C)cs3)nc2c1C [DP 1] | 98.7 | 96.5 | 95.6 | 95.2 | 92.9 | > 100 | – | – | – | – | – | – | – | – | – | –
COc1ccc2c(OC3CC4C(=O)NC5CC5C=CCCCCN(C)C(=O)C4C3)cc(-c3nc(C(C)C)cs3)nc2c1C (stereo not shown) [DP 2] | 98.5 | 98.5 | 97.4 | 97.1 | 95.6 | > 100 | – | – | – | – | – | – | – | – | – | –
CN1CCCCC=CC2CC2(C(=O)NS(=O)(=O)C2CC2)NC(=O)C2CC(O)CC2C1=O (stereo not shown) [DP 3] | 97.7 | 97.6 | 93.4 | 91.1 | 90.9 | > 100 | 89.9 | slight changes | – | – | – | – | – | – | – | –
COc1ccc2ccc(-c3scc(C(C)C)[n+]3[O-])[n+]([O-])c2c1CO [DP 4] | 96.1 | 93.9 | 93.1 | 92.1 | 92.7 | > 100 | – | – | – | – | – | – | – | – | – | –
COc1ccc2ccc(-c3scc(C(C)C)[n+]3[O-])[n+]([O-])c2c1C [DP 5] | 96.3 | 96.8 | 93.7 | 93 | 92.5 | > 100 | – | – | – | – | – | – | – | – | – | –
COc1cccc2c1C(=O)c1c(O)c3c(c(O)c1C2=O)C[C@@](O)(C(=O)CO)C[C@@H]3O[C@H]1C[C@H](N)[C@H](O)[C@H](C)O1 [Doxorubicin, reference compound] | 99.5 | 98.4 | 59.9 | 15.5 | 3.29 | 1.4 | – | – | no occurrence of morphological changes | – | – | – | – | – | – | –
COc1ccc2c(O[C@@H]3C[C@H]4C(=O)N[C@]5(C(=O)NS(=O)(=O)C6CC6)C[C@H]5/C=C\CCCCN(C)C(=O)[C@@H]4C3)cc(-c3nc(C(C)C)cs3)nc2c1C [Simeprevir] | – | – | – | – | – | – | – | – | – | 26.63 | No degradation | 21.87 | No degradation | 35.55 | 39.80 | 5.9
